Results taken from US7098340B2, “Benzyl sulfonamide derivatives” (Warner Lambert Company LLC, priority 2003, dated 2006).

molecular target: T1, androgen receptor (Homo sapiens, UniProt P10275); experiment: AR Antagonist Cell Assay (MMTV-luciferase reporter, DHT-stimulated); format: cell-based; conditions: MDA-MB453-MMTV clone 54-19 cells; antagonism of 100 pM DHT, 17 hr, luciferase readout
T1 sequence (P10275 1-920 Q868H): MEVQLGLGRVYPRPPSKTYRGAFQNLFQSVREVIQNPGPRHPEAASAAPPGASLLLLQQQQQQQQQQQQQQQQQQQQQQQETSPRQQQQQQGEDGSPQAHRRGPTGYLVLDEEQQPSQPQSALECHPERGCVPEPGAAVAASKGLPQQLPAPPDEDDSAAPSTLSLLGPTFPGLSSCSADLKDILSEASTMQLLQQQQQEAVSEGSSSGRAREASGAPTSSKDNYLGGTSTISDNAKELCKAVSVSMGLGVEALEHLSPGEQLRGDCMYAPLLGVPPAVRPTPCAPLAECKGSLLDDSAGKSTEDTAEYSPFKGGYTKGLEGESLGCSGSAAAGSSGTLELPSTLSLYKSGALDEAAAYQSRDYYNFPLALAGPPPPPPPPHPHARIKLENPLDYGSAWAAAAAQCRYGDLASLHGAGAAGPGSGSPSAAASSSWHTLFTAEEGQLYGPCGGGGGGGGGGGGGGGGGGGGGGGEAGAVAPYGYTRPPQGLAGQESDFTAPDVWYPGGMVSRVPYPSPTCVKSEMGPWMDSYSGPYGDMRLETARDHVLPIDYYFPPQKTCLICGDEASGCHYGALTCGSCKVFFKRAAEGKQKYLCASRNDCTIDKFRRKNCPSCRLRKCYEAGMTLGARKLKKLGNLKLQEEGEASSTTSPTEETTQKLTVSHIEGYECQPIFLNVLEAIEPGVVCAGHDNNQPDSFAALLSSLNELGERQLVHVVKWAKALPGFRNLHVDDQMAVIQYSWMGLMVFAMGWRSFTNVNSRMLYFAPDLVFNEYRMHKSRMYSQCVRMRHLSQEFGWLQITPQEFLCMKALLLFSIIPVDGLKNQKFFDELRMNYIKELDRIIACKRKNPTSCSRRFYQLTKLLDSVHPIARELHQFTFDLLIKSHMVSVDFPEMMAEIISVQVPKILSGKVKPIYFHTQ
Procedure, shortened: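 MDA-MB453 cells stably carrying MMTV-ARE-firefly luciferase, in 1% charcoal-treated serum, preincubated 30 min with compound (10 uM or 1 uM) then stimulated with 100 pM DHT for 17 h at 37° C. Luminescence read; result as % inhibition of DHT fold induction.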

| SMILES | IC50 [µM] |
| --- | --- |
| CC(C)CCNS(=O)(=O)c1ccc(Cc2ccc3oc(=O)cc(C(F)(F)F)c3c2)cc1 [Example 159, N-(3-Methylbutyl)-4-(2-oxo-4-trifluoromethyl-2H-chromen-6-ylmethyl)benzenesulfonamide] | > 10 |
| O=c1cc(C(F)(F)F)c2cc(Cc3ccc(S(=O)(=O)NC[C@H](O)CO)cc3)ccc2o1 [Example 160, N-(2,3-Dihydroxypropyl)-4-(2-oxo-4-trifluoromethyl-2H-chromen-6-ylmethyl)benzenesulfonamide] | > 10 |
| O=c1cc(C(F)(F)F)c2cc(Cc3ccc(S(=O)(=O)NCC4CCCCC4)cc3)ccc2o1 [Example 165, N-Cyclohexylmethyl-4-(2-oxo-4-trifluoromethyl-2H-chromen-6-ylmethyl)benzene-sulfonamide] | ~10 |
| O=c1cc(C(F)(F)F)c2cc(Cc3ccc(S(=O)(=O)NC4CCCCCC4)cc3)ccc2o1 [Example 166, N-Cycloheptyl-4-(2-oxo-4-trifluoromethyl-2H-chromen-6-ylmethyl)benzenesulfonamide] | 6.97 |
| O=c1cc(C(F)(F)F)c2cc(Cc3ccc(S(=O)(=O)NC4(CO)CCCC4)cc3)ccc2o1 [Example 167, N-(1-Hydroxymethyl-cyclopentyl)-4-(2-oxo-4-trifluoromethyl-2H-chromen-6-ylmethyl)benzenesulfonamide] | > 10 |
| Cc1ccccc1CNS(=O)(=O)c1ccc(Cc2ccc3oc(=O)cc(C(F)(F)F)c3c2)cc1 [Example 171, N-(2-Methylbenzyl)-4-(2-oxo-4-trifluoromethyl-2H-chromen-6-ylmethyl)benzenesulfonamide] | 9.62 |
| O=c1cc(C(F)(F)F)c2cc(Cc3ccc(S(=O)(=O)NCc4ccc(F)cc4)cc3)ccc2o1 [Example 173, N-(4-Fluorobenzyl)-4-(2-oxo-4-trifluoromethyl-2H-chromen-6-ylmethyl)benzenesulfonamide] | 7.68 |
| O=c1cc(C(F)(F)F)c2cc(Cc3ccc(S(=O)(=O)NCCC4=CCCCC4)cc3)ccc2o1 [Example 175, N-(2-Cyclohex-1-enylethyl)-4-(2-oxo-4-trifluoromethyl-2H-chromen-6-ylmethyl)benzenesulfonamide] | 8.5 |
| O=c1cc(C(F)(F)F)c2cc(Cc3ccc(S(=O)(=O)NC4CCc5ccccc54)cc3)ccc2o1 (stereo not shown) [Example 178, N-Indan-1-yl-4-(2-oxo-4-trifluoromethyl-2H-chromen-6-ylmethyl)benzenesulfonamide] | 7.74 |
| CC(C)(NS(=O)(=O)c1ccc(Cc2ccc3oc(=O)cc(C(F)(F)F)c3c2)cc1)c1ccccc1 [Example 179, N-(1-Methyl-1-phenylethyl)-4-(2-oxo-4-trifluoromethyl-2H-chromen-6-ylmethyl)benzenesulfonamide] | > 10 |
| O=c1cc(C(F)(F)F)c2cc(Cc3ccc(S(=O)(=O)NCCOc4ccccc4)cc3)ccc2o1 [Example 181, 4-(2-Oxo-4-trifluoromethyl-2H-chromen-6-ylmethyl)-N-(2-phenoxyethyl)-benzenesulfonamide] | 6.96 |
| O=c1cc(C(F)(F)F)c2cc(Cc3ccc(S(=O)(=O)NCc4cccc(Cl)c4)cc3)ccc2o1 [Example 186, N-(3-Chlorobenzyl)-4-(2-oxo-4-trifluoromethyl-2H-chromen-6-ylmethyl)benzenesulfonamide] | > 10 |
| O=c1cc(C(F)(F)F)c2cc(Cc3ccc(S(=O)(=O)NC(CCO)c4ccccc4)cc3)ccc2o1 (stereo not shown) [Example 192, N-(3-Hydroxy-1-phenylpropyl)-4-(2-oxo-4-trifluoromethyl-2H-chromen-6-ylmethyl)benzenesulfonamide] | 6.52 |
| O=c1cc(C(F)(F)F)c2cc(Cc3ccc(S(=O)(=O)NC4CCC(O)CC4)cc3)ccc2o1 (stereo not shown) [Example 193, N-(4-Hydroxycyclohexyl)-4-(2-oxo-4-trifluoromethyl-2H-chromen-6-ylmethyl)benzenesulfonamide] | 9.11 |
| CSc1ccccc1CNS(=O)(=O)c1ccc(Cc2ccc3oc(=O)cc(C(F)(F)F)c3c2)cc1 [Example 194, N-(2-Methylsulfanylbenzyl)-4-(2-oxo-4-trifluoromethyl-2H-chromen-6-ylmethyl)benzenesulfonamide] | 8 |

More lines, in order of falling IC50, values ahead:

| IC50 [µM] | SMILES |
| --- | --- |
| 6.5 | O=c1cc(C(F)(F)F)c2cc(Cc3ccc(S(=O)(=O)NC4CCCC4)cc3)ccc2o1 [Example 158, N-Cyclopentyl-4-(2-oxo-4-trifluoromethyl-2H-chromen-6-ylmethyl)benzenesulfonamide] |
| 6.09 | O=c1cc(C(F)(F)F)c2cc(Cc3ccc(S(=O)(=O)NC4CCN(Cc5ccccc5)CC4)cc3)ccc2o1 [Example 157, N-(1-Benzylpipendin-4-yl)-4-(2-oxo-4-trifluoromethyl-2H-chromen-6-ylmethyl)benzenesulfonamide] |
| 6 | O=c1cc(C(F)(F)F)c2cc(Cc3ccc(S(=O)(=O)NCCc4cccs4)cc3)ccc2o1 [Example 176, 4-(2-Oxo-4-trifluoromethyl-2H-chromen-6-ylmethyl)-N-(2-thiophen-2-ylethyl)benzenesulfonamide] |
| 5.93 | O=c1cc(C(F)(F)F)c2cc(Cc3ccc(S(=O)(=O)NCc4ccc(F)cc4Cl)cc3)ccc2o1 [Example 198] |
| 5.81 | Cc1cccc(CNS(=O)(=O)c2ccc(Cc3ccc4oc(=O)cc(C(F)(F)F)c4c3)cc2)c1 [Example 169, N-(3-Methylbenzyl)-4-(2-oxo-4-trifluoromethyl-2H-chromen-6-ylmethyl)benzenesulfonamide] |
| 5.5 | O=c1cc(C(F)(F)F)c2cc(Cc3ccc(S(=O)(=O)NCCCn4ccnc4)cc3)ccc2o1 [Example 174, N-(3-Imidazol-1-ylpropyl)-4-(2-oxo-4-triftuoromethyl-2H-chromen-6-ylmethyl)benzenesulfonamide] |
| 5.41 | COc1ccccc1CCNS(=O)(=O)c1ccc(Cc2ccc3oc(=O)cc(C(F)(F)F)c3c2)cc1 [Example 190, N-[2-(2-Methoxyphenyl)ethyl]-4-(2-oxo-4-trifluoromethyl-2H-chromen-6-ylmethyl)benzenesulfonamide] |
| 4.73 | O=c1cc(C(F)(F)F)c2cc(Cc3ccc(S(=O)(=O)NCc4ccccc4OC(F)F)cc3)ccc2o1 [Example 199, N-(2-Difluoromethoxybenzyl)-4-(2-oxo-4-trifluoromethyl-2H-chromen-6-ylmethyl)benzenesulfonamide] |
| 4.66 | C[C@H](NS(=O)(=O)c1ccc(Cc2ccc3oc(=O)cc(C(F)(F)F)c3c2)cc1)c1ccccc1 [Example 172, 4-(2-Oxo-4-trifluoromethyl-2H-chromen-6-ylmethyl)-N-(1-phenylethyl)-benzenesulfonamide] |
| 4.06 | Cc1ccc(F)cc1CNS(=O)(=O)c1ccc(Cc2ccc3oc(=O)cc(C(F)(F)F)c3c2)cc1 [Example 185, N-(5-Fluoro-2-methylbenzyl)-4-(2-oxo-4-trifluoromethyl-2H-chromen-6-ylmethyl)-benzenesulfonamide] |
| 3.44 | O=C1CCCN1CCCNS(=O)(=O)c1ccc(Cc2ccc3oc(=O)cc(C(F)(F)F)c3c2)cc1 [Example 187, N-[3-(2-Oxopyrrolidin-1-yl)propyl]-4-(2-oxo-4-trifluoromethyl-2H-chromen-6-ylmethyl)benzenesulfonamide] |
| 3.08 | O=c1cc(C(F)(F)F)c2cc(Cc3ccc(S(=O)(=O)NCc4cccnc4)cc3)ccc2o1 [Example 163, 4-(2-Oxo-4-trifluoromethyl-2H-chromen-6-ylmethyl)-N-pyridin-3-ylmethylbenzenesulfonamide] |
| 2.51 | O=c1cc(C(F)(F)F)c2cc(Cc3ccc(S(=O)(=O)NCc4ccc5c(c4)CCO5)cc3)ccc2o1 [Example 189, N-(2,3-Dihydrobenzofuran-5-ylmethyl)-4-(2-oxo-4-trifluoromethyl-2H-chromen-6-ylmethyl)benzenesulfonamide] |
| 2.06 | CC(CNS(=O)(=O)c1ccc(Cc2ccc3oc(=O)cc(C(F)(F)F)c3c2)cc1)c1ccccc1 (stereo not shown) [Example 180, 4-(2-Oxo-4-trifluoromethyl-2H-chromen-6-ylmethyl)-N-(2-phenylpropyl)-benzenesulfonamide] |
| 1.94 | Cc1ccc(CNS(=O)(=O)c2ccc(Cc3ccc4oc(=O)cc(C(F)(F)F)c4c3)cc2)c(F)c1F [Example 197, N-(2,3-Difluoro-4-methylbenzyl)-4-(2-oxo-4-trifluoromethyl-2H-chromen-6-ylmethyl)benzenesulfonamide] |
| 1.91 | O=c1cc(C(F)(F)F)c2cc(Cc3ccc(S(=O)(=O)NCc4c(F)cccc4F)cc3)ccc2o1 [Example 188, N-(2,6-Difluorobenzyl)-4-(2-oxo-4-trifluoromethyl-2H-chromen-6-ylmethyl)benzenesulfonamide] |
